Biological target: T1, human PLC-β2 (Homo sapiens, UniProt Q00722)
T1 construct: made in house; host or cells: Sf9 cells (Spodoptera frugiperda), recombinant baculovirus
Assay: PLC assay using FlashPlates (immobilized [3H]PIP2 substrate, 96-well)
Assay type: biochemical
Settings: for IC50: hydrolysis of immobilized [3H]PIP2, purified recombinant human PLC-β2 or cytosolic human PLC-β2; for inhibition at up to 10 µM: printed in brackets beside IC50 >10 μM, test concentration not stated
Source text: The hydrolysis of phosphatidylinositol-4,5-bisphosphate (PIP2) by a specific phospholipase C-β2 (PLC-β2) produces two intracellular messengers, diacylglycerol (DAG) and inositol 1,4,5-trisphosphate (IP3), which mediate the activation of protein kinase C and intracellular Ca^2+ release. A conventional organic solvent extraction method is widely used for PLC assays to isolate IP3 from the substrate PIP2. The conventional PLC-β2 assay, however is terminated by addition of acidified organic solvents and subsequent extraction and phase separation. […] Accordingly, a preferred method to test the compounds of the present invention, was developed utilizing a 96-well plate assay for PLC-β2 using immobilized radiolabeled substrate to quantitatively measure the reduction in the substrate level without a need for organic solvent extraction. The automated PLC-β2 assay described herein provides a convenient method for quantitative measurement of phospholipase C activities in a high throughput fashion.
Ninety-six well Phospholipid FlashPlates were coated with 0.2 mL of 50 mM Tris/HCl (pH 7.4), 0.01% Ac-BSA and 50,000 cpm of ^[3H]PIP2 (phosphatidylinositol-4,5-bisphosphate) at 4° C. for 72 h. The wells were aspirated and washed twice with PBS. The reactions were conducted directly in the wells in PLC reaction buffer containing 50 mM Tris/HCl (pH 7.2), 2.75 mM EDTA (pH 7.3), 80 mM KCl, 10 mM LiCl, 0.04% DOC and 2 mM CaCl2 in the absence or presence of the purified recombinant human PLC-β2 (prepared as described hereafter) or cytosolic human PLC-β2 from […]. Reduction of radioactivity was monitored by a Packard TopCount instrument (Packard Instrument Company, Conn., USA).
Suspension cultures of Sf9 cells were maintained in a spinner flask at 27° C. and stirred at 90 rpm. The cells were grown in Grace's media supplemented with 10% (v/v) fetal bovine serum, 3.3 g/l yeastolate, 3.3 g/l lactalbumin hydrosylate, glutamine (6.4 mM final), 50 µg/ml gentamicin, and 50 μg/ml kanamycin. Suspension of Sf9 cells (1.0×10^6 cells/ml) were infected with 5 pfu/cell of recombinant baculovirus encoding PLC-β2 and incubated at 27° C. for 72 h. The cells were collected by centrifugation (500×g, 7 min, 4° C.) and disrupted by hypotonic lysis buffer containing 20 mM Tris/HCl, pH 7.4, 5 mM MgCl2, 2 mM EGTA, 200 βM PMSF, 200 βM benzamidine and 1 βM pepstatin A. The lysate was sonicated on ice and the nuclei and unbroken cells removed by centrifugation (500×g, 5 min, 4° C.). The supernatant was recovered and clarified by centrifugation (34,000 rpm, 60 min, 4° C.). The supernatant was used as a crude cytosolic fraction (Paterson, A., Boyer, J. L., Watts, V. J., Morris, A. J., Price, E. M., Harden, T. K. (1995) Concentration of enzyme-dependent activation of PLC β1 and PLC β2 by Gα11 and βγ subunits. Cellular Signalling 7, 709-720).
Crude cytosol prepared from Sf9 cells expressing PLC-β2 was purified initially by chromatography on a 10 ml column of Q-Sepharose FF, equilibrated in buffer A (25 mM HEPES, pH 7.2, 2 mM DTT, 2 mM EDTA, 2 mM EGTA, 200 μM PMSF, 200 μM benzamidine, 1 μM pepstatin A containing 10 mM NaCl). The column was washed with 20 ml of equilibration buffer and eluted with a 200-ml gradient of 110-410 mM NaCl in buffer A. The fractions containing PLC activity were pooled and diluted with buffer A. The diluted enzyme was applied to a 4 ml column of heparin-SepharoseCL-6B equilibrated in buffer A and the column washed with 70 ml of buffer A. The column was eluted with 80 ml of gradient of 0-1.0 M NaCl in buffer A, the column eluate collected in 3 ml fractions. […]

T1 sequence (Q00722 whole entry): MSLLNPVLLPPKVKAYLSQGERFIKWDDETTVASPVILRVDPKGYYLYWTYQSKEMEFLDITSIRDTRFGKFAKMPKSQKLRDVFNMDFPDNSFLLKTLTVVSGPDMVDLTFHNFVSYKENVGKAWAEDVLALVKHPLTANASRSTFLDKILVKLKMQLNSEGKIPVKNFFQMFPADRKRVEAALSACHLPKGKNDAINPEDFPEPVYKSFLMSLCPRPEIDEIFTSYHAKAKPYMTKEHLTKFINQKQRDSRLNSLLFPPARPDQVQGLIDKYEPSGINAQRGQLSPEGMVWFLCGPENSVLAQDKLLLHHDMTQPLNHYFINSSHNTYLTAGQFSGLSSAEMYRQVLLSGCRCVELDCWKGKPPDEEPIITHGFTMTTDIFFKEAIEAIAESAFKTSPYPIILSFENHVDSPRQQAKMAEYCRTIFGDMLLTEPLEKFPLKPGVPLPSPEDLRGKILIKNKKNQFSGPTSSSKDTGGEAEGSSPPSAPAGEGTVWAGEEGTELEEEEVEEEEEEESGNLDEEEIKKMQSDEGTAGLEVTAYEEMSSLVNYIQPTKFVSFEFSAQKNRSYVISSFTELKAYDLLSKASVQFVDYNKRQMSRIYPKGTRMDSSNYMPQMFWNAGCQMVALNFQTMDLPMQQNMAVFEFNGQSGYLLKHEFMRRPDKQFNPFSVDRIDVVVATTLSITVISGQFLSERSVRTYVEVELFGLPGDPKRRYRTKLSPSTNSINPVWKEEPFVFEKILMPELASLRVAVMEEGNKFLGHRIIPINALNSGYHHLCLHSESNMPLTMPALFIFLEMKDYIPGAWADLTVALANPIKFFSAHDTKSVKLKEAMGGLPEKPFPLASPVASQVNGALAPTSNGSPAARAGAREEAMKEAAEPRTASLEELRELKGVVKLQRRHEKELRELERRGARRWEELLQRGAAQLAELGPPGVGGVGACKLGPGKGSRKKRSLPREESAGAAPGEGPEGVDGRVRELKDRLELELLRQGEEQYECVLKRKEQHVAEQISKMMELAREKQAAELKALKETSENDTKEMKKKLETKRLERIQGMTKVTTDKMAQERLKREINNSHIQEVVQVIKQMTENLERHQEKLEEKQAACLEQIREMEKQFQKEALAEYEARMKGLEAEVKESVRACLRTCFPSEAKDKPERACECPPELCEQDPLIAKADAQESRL

**Q.** How did the IC50 turn out when `Cc1ccc(C(=O)Nc2cc(C(=O)N3CCNCC3)ccc2N2CCN(C(c3ccccc3)c3ccccc3)CC2)cc1` [Cpd 1, N-[2-[4-(diphenylmethyl)-1-piperazinyl]-5-(1-piperazinylcarbonyl)phenyl]-4-methyl-benzamide] was run?
**A.** Its IC50 is 12.6 µM.

**Q.** How did the IC50 turn out when `Cc1oc(-c2ccc(Cl)cc2)cc1C(=O)Nc1cc(C(=O)N2CCNCC2)ccc1N1CCN(C(c2ccccc2)c2ccccc2)CC1` [Cpd 2, 5-(4-chlorophenyl)-N-[2-[4-(diphenylmethyl)-1-piperazinyl]-5-(1-piperazinylcarbonyl)phenyl]-2-methyl-3-furancarboxamide] was run?
**A.** Its IC50 is 17.4 µM.

**Q.** `O=C(Nc1cc(C(=O)N2CCNCC2)ccc1N1CCN(C(c2ccccc2)c2ccccc2)CC1)c1ccco1` [Cpd 3, N-[2-[4-(diphenylmethyl)-1-piperazinyl]-5-(1-piperazinylcarbonyl)phenyl]-2-furancarboxamide] was tested. Which IC50 did it give?
**A.** Its IC50 is 21.6 µM.

**Q.** With `CCC(=O)Nc1cc(C(=O)N2CCNCC2)ccc1N1CCN(C(c2ccccc2)c2ccccc2)CC1` [Cpd 4, N-[2-[4-(diphenylmethyl)-1-piperazinyl]-5-(1-piperazinylcarbonyl)phenyl]-propanamide] as the molecule, how does the IC50 read?
**A.** The IC50 was greater than 25 µM.

**Q.** `Cc1ccc(S(=O)(=O)Nc2cc(C(=O)N3CCNCC3)ccc2N2CCN(C(c3ccccc3)c3ccccc3)CC2)cc1` [Cpd 5, N-[2-[4-(diphenylmethyl)-1-piperazinyl]-5-(1-piperazinylcarbonyl)phenyl]-4-methyl-benzenesulfonamide] was tested. Which IC50 did it give?
**A.** Its IC50 is 10.8 µM.

**Q.** With `O=C(c1ccc(N2CCN(C(c3ccccc3)c3ccccc3)CC2)c(NS(=O)(=O)c2ccc(Cl)cc2)c1)N1CCNCC1` [Cpd 6, 4-chloro-N-[2-[4-(diphenylmethyl)-1-piperazinyl]-5-(1-piperazinylcarbonyl)phenyl]-benzenesulfonamide] as the molecule, how does the IC50 read?
**A.** The IC50 was 8.7 µM.

**Q.** Which IC50 does the source give for `CCCCS(=O)(=O)Nc1cc(C(=O)N2CCNCC2)ccc1N1CCN(C(c2ccccc2)c2ccccc2)CC1` [Cpd 7, N-[2-[4-(diphenylmethyl)-1-piperazinyl]-5-(1-piperazinylcarbonyl)phenyl]-1-butanesulfonamide] here?
**A.** Its IC50 is greater than 25 µM.

**Q.** With `CS(=O)(=O)Nc1cc(C(=O)N2CCNCC2)ccc1N1CCN(C(c2ccccc2)c2ccccc2)CC1` [Cpd 8, N-[2-[4-(diphenylmethyl)-1-piperazinyl]-5-(1-piperazinylcarbonyl)phenyl]-methanesulfonamide] as the molecule, how does the IC50 read?
**A.** The IC50 was 9.8 µM.

**Q.** For `CS(=O)(=O)c1ccc(N2CCN(C(c3ccccc3)c3ccccc3)CC2)c(NC(=O)Nc2ccccc2)c1` [Cpd 9, N-[2-[4-(diphenylmethyl)-1-piperazinyl]-5-(methylsulfonyl)phenyl]-N′-phenyl-urea], which IC50 is on record?
**A.** The IC50 was greater than 10 µM.

**Q.** What about the inhibition at up to 10 µM of the same molecule?
**A.** The inhibition at up to 10 µM was 60%.

**Q.** What does the source list for `O=C(Nc1ccccc1)Nc1cc(CO)ccc1N1CCN(C(c2ccc(F)cc2)c2ccc(F)cc2)CC1` [Cpd 10, N-[2-[4-[bis(4-fluorophenyl)methyl]-1-piperazinyl]-5-(hydroxymethyl)phenyl]-N′-phenyl-urea]?
**A.** IC50: > 10 µM; inhibition at up to 10 µM: 47%

**Q.** How did the IC50 turn out when `COC(=O)c1ccc(N2CCN(C(c3ccc(F)cc3)c3ccc(F)cc3)CC2)c(NC(=O)Nc2ccccc2)c1` [Cpd 11, 4-[4-[bis(4-fluorophenyl)methyl]-1-piperazinyl]-3-[[(phenylamino)carbonyl]amino]-benzoic acid methyl ester] was run?
**A.** Its IC50 is greater than 10 µM.

Source: patent US7262197B2, “Phospholipase C inhibitors for use in treating inflammatory disorders” (Janssen Pharmaceutica, N.V, priority 2003, dated 2007)
